# Biological target: plasma kallikrein (PK) (Homo sapiens, UniProt P03952)
# Test: Determining the inhibitory constants: inhibition of PK (substrate Bzl-Pro-Phe-Arg-pNA)
# Type: biochemical
# Settings: Tris buffer pH 8.0, 25° C.; mean of at least three determinations
# Procedure: (§1) The inhibitory effect for the individual enzymes was determined in analogy with a method which has already been described (Stürzebecher et al., J. Med. Chem. 40, 3091-3099, 1997).
# (§2) After 3 min, the reaction was terminated by adding 25 μl of acetic acid (50%) and the absorption at […] was determined using a Microplate Reader (Labsystems iEMS Reader MF). The Ki values were determined, in accordance with Dixon (Biochem. J. 55, 170-171, 1953), by means of linear regression and using a computer program. The Ki values are the mean of at least three determinations.
# Sequence of plasma kallikrein (PK) (P03952 391-638 limits assumed, species assumed): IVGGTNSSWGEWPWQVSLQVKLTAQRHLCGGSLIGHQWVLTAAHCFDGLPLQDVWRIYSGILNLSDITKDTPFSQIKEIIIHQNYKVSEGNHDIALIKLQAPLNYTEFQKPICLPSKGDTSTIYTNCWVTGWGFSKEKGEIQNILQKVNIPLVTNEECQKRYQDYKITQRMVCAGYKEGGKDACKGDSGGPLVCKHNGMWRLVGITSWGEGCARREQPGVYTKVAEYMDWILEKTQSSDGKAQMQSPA
# Sequence of plasma kallikrein (PK) (P03952 20-390 partner limits assumed, species assumed): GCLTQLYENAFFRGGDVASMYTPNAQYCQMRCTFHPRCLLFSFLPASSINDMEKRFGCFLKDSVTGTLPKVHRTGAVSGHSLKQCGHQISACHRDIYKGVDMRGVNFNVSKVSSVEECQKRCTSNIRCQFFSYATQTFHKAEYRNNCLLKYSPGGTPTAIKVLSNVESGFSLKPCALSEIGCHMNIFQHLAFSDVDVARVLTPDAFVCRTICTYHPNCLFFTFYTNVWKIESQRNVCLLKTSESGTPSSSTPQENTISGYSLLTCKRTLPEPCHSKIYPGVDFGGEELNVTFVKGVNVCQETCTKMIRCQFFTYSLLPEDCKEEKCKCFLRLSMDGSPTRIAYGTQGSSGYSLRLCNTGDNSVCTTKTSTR
row,Compound,Ki
1,N=C(N)c1ccc(CNC(=O)CNC(=O)C(CO)NS(=O)(=O)Cc2ccccc2)cc1 (centres unmarked) [Inhibitor 1],1.7 µM
2,C[C@H](NC(=O)[C@@H](CO)NS(=O)(=O)Cc1ccccc1)C(=O)NCc1ccc(C(=N)N)cc1 [Inhibitor 2],0.07 µM
3,N=C(N)c1ccc(CNC(=O)C2CCCN2C(=O)C(CO)NS(=O)(=O)Cc2ccccc2)cc1 (centres unmarked) [Inhibitor 3],0.054 µM
4,N=C(N)c1ccc(CNC(=O)[C@H](CC(=O)O)NC(=O)[C@@H](CO)NS(=O)(=O)Cc2ccccc2)cc1 [Inhibitor 4],3.7 µM
5,N=C(N)c1ccc(CNC(=O)[C@H](CCC(=O)O)NC(=O)[C@@H](CO)NS(=O)(=O)Cc2ccccc2)cc1 [Inhibitor 5],1.1 µM
6,N=C(N)c1ccc(CNC(=O)[C@H](CCC(N)=O)NC(=O)[C@@H](CO)NS(=O)(=O)Cc2ccccc2)cc1 [Inhibitor 6],0.047 µM
7,N=C(N)c1ccc(CNC(=O)[C@H](CN)NC(=O)[C@@H](CO)NS(=O)(=O)Cc2ccccc2)cc1 [Inhibitor 8],0.05 µM
8,N=C(N)c1ccc(CNC(=O)[C@H](CNC(=O)OCc2ccccc2)NC(=O)[C@@H](CO)NS(=O)(=O)Cc2ccccc2)cc1 [Inhibitor 9],0.042 µM
9,N=C(N)c1ccc(CNC(=O)[C@H](CCCCN)NC(=O)[C@@H](CO)NS(=O)(=O)Cc2ccccc2)cc1 [Inhibitor 10],0.016 µM
10,N=C(N)c1ccc(CNC(=O)[C@H](CCCCNC(=O)OCc2ccccc2)NC(=O)[C@@H](CO)NS(=O)(=O)Cc2ccccc2)cc1 [Inhibitor 11],0.0035 µM
11,N=C(N)NCCC[C@H](NC(=O)[C@@H](CO)NS(=O)(=O)Cc1ccccc1)C(=O)NCc1ccc(C(=N)N)cc1 [Inhibitor 12],0.079 µM
12,C[C@@H](O)[C@H](NC(=O)[C@@H](CO)NS(=O)(=O)Cc1ccccc1)C(=O)NCc1ccc(C(=N)N)cc1 [Inhibitor 13],0.24 µM
13,C[C@@H](OCc1ccccc1)[C@H](NC(=O)[C@@H](CO)NS(=O)(=O)Cc1ccccc1)C(=O)NCc1ccc(C(=N)N)cc1 [Inhibitor 14],0.091 µM
14,N=C(N)c1ccc(CNC(=O)[C@H](CO)NC(=O)[C@@H](CO)NS(=O)(=O)Cc2ccccc2)cc1 [Inhibitor 15],0.16 µM
15,N=C(N)c1ccc(CNC(=O)[C@H](COCc2ccccc2)NC(=O)[C@@H](CO)NS(=O)(=O)Cc2ccccc2)cc1 [Inhibitor 16],0.025 µM
16,N=C(N)c1ccc(CNC(=O)C[C@H](CO)NC(=O)[C@@H](CO)NS(=O)(=O)Cc2ccccc2)cc1 [Inhibitor 17],0.02 µM
17,N=C(N)c1ccc(CNC(=O)[C@H](Cc2ccccc2)NC(=O)[C@@H](CO)NS(=O)(=O)Cc2ccccc2)cc1 [Inhibitor 18],0.021 µM

# Biological target: T1, human factor XIIa (Homo sapiens, UniProt P00748)
# T1 construct: purchased Haemochrom Diagnostica GmbH, Essen, Germany
# Test: Inhibitory constants for factor XIIa (substrate H-D-HHT-Gly-Arg-pNA, Chromozym XII)
# Type: biochemical
# Settings: read-out: Ki F XIIa
# Procedure: as §1, §2
# (§3) The inhibition of factor XIa and factor XIIa was determined in an analogous manner. When determining the inhibitory constants for human factor XIa (Haemochrom Diagnostica GmbH, Essen, Germany), H-D-Lys(Z)-Pro-Arg-pNA (Chromozym PCa, Roche Diagnostics GmbH, Mannheim, Germany) was used as the substrate.
# H-D-HHT-Gly-Arg-pNA (Chromozym XII, Roche Diagnostics GmbH, Mannheim, Germany) was used as the substrate for measuring the inhibitory constants of human factor XIIa (Haemochrom Diagnostica GmbH, Essen, Germany).
# T1 sequence (P00748 373-615 limits assumed, other chains not shown): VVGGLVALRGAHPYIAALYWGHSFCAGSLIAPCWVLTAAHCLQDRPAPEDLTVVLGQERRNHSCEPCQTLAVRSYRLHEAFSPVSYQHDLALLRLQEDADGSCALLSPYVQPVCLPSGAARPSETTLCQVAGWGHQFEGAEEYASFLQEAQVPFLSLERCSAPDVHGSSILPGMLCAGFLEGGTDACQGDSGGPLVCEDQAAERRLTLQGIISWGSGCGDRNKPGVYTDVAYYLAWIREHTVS
row,Compound,Ki
1,N=C(N)c1ccc(CNC(=O)CNC(=O)C(CO)NS(=O)(=O)Cc2ccccc2)cc1 (centres unmarked) [Inhibitor 1],16 µM
2,C[C@H](NC(=O)[C@@H](CO)NS(=O)(=O)Cc1ccccc1)C(=O)NCc1ccc(C(=N)N)cc1 [Inhibitor 2],9.2 µM
3,N=C(N)c1ccc(CNC(=O)C2CCCN2C(=O)C(CO)NS(=O)(=O)Cc2ccccc2)cc1 (centres unmarked) [Inhibitor 3],5.1 µM
4,N=C(N)c1ccc(CNC(=O)[C@H](CC(=O)O)NC(=O)[C@@H](CO)NS(=O)(=O)Cc2ccccc2)cc1 [Inhibitor 4],> 1000 µM
5,N=C(N)c1ccc(CNC(=O)[C@H](CCC(=O)O)NC(=O)[C@@H](CO)NS(=O)(=O)Cc2ccccc2)cc1 [Inhibitor 5],> 1000 µM
6,N=C(N)c1ccc(CNC(=O)[C@H](CCC(N)=O)NC(=O)[C@@H](CO)NS(=O)(=O)Cc2ccccc2)cc1 [Inhibitor 6],25 µM
7,N=C(N)c1ccc(CNC(=O)[C@H](CN)NC(=O)[C@@H](CO)NS(=O)(=O)Cc2ccccc2)cc1 [Inhibitor 8],15 µM
8,N=C(N)c1ccc(CNC(=O)[C@H](CNC(=O)OCc2ccccc2)NC(=O)[C@@H](CO)NS(=O)(=O)Cc2ccccc2)cc1 [Inhibitor 9],13 µM
9,N=C(N)c1ccc(CNC(=O)[C@H](CCCCN)NC(=O)[C@@H](CO)NS(=O)(=O)Cc2ccccc2)cc1 [Inhibitor 10],21 µM
10,N=C(N)c1ccc(CNC(=O)[C@H](CCCCNC(=O)OCc2ccccc2)NC(=O)[C@@H](CO)NS(=O)(=O)Cc2ccccc2)cc1 [Inhibitor 11],15 µM
11,N=C(N)NCCC[C@H](NC(=O)[C@@H](CO)NS(=O)(=O)Cc1ccccc1)C(=O)NCc1ccc(C(=N)N)cc1 [Inhibitor 12],16 µM
12,C[C@@H](O)[C@H](NC(=O)[C@@H](CO)NS(=O)(=O)Cc1ccccc1)C(=O)NCc1ccc(C(=N)N)cc1 [Inhibitor 13],51 µM
13,C[C@@H](OCc1ccccc1)[C@H](NC(=O)[C@@H](CO)NS(=O)(=O)Cc1ccccc1)C(=O)NCc1ccc(C(=N)N)cc1 [Inhibitor 14],23 µM
14,N=C(N)c1ccc(CNC(=O)[C@H](CO)NC(=O)[C@@H](CO)NS(=O)(=O)Cc2ccccc2)cc1 [Inhibitor 15],80 µM
15,N=C(N)c1ccc(CNC(=O)[C@H](COCc2ccccc2)NC(=O)[C@@H](CO)NS(=O)(=O)Cc2ccccc2)cc1 [Inhibitor 16],9.8 µM
16,N=C(N)c1ccc(CNC(=O)C[C@H](CO)NC(=O)[C@@H](CO)NS(=O)(=O)Cc2ccccc2)cc1 [Inhibitor 17],> 1000 µM
17,N=C(N)c1ccc(CNC(=O)[C@H](Cc2ccccc2)NC(=O)[C@@H](CO)NS(=O)(=O)Cc2ccccc2)cc1 [Inhibitor 18],0.97 µM

# Biological target: T2, human factor XIa (Homo sapiens, UniProt P03951)
# T2 construct: purchased Haemochrom Diagnostica GmbH, Essen, Germany
# Test: Inhibitory constants for factor XIa (substrate H-D-Lys(Z)-Pro-Arg-pNA, Chromozym PCa)
# Type: biochemical
# Settings: read-out: Ki F XIa
# Procedure: as §1, §2, §3
# T2 sequence (P03951 388-625 limits assumed): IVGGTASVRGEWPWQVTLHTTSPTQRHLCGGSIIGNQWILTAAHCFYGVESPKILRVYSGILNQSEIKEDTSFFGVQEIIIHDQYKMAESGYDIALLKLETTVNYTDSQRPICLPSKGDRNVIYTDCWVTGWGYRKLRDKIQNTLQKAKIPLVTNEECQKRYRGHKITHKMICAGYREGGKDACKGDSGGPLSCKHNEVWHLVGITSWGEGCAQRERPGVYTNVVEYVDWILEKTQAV
# T2 sequence (P03951 19-387 partner limits assumed): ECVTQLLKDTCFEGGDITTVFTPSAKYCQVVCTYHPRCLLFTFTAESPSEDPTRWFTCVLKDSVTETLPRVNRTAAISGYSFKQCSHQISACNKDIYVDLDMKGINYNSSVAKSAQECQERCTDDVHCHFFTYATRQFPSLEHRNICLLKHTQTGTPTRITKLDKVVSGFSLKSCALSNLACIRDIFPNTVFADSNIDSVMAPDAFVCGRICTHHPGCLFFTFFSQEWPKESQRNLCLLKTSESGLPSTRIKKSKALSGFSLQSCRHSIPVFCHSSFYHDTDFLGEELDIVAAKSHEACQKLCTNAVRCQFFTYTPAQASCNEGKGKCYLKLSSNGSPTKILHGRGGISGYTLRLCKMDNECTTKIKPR
row,Compound,Ki
1,N=C(N)c1ccc(CNC(=O)CNC(=O)C(CO)NS(=O)(=O)Cc2ccccc2)cc1 (centres unmarked) [Inhibitor 1],2.2 µM
2,C[C@H](NC(=O)[C@@H](CO)NS(=O)(=O)Cc1ccccc1)C(=O)NCc1ccc(C(=N)N)cc1 [Inhibitor 2],0.11 µM
3,N=C(N)c1ccc(CNC(=O)C2CCCN2C(=O)C(CO)NS(=O)(=O)Cc2ccccc2)cc1 (centres unmarked) [Inhibitor 3],0.1 µM
4,N=C(N)c1ccc(CNC(=O)[C@H](CCC(N)=O)NC(=O)[C@@H](CO)NS(=O)(=O)Cc2ccccc2)cc1 [Inhibitor 6],0.13 µM
5,N=C(N)c1ccc(CNC(=O)[C@H](CN)NC(=O)[C@@H](CO)NS(=O)(=O)Cc2ccccc2)cc1 [Inhibitor 8],0.39 µM
6,N=C(N)c1ccc(CNC(=O)[C@H](CNC(=O)OCc2ccccc2)NC(=O)[C@@H](CO)NS(=O)(=O)Cc2ccccc2)cc1 [Inhibitor 9],0.28 µM
7,N=C(N)c1ccc(CNC(=O)[C@H](CCCCN)NC(=O)[C@@H](CO)NS(=O)(=O)Cc2ccccc2)cc1 [Inhibitor 10],0.89 µM
8,N=C(N)c1ccc(CNC(=O)[C@H](CCCCNC(=O)OCc2ccccc2)NC(=O)[C@@H](CO)NS(=O)(=O)Cc2ccccc2)cc1 [Inhibitor 11],0.3 µM
9,N=C(N)NCCC[C@H](NC(=O)[C@@H](CO)NS(=O)(=O)Cc1ccccc1)C(=O)NCc1ccc(C(=N)N)cc1 [Inhibitor 12],0.77 µM
10,C[C@@H](O)[C@H](NC(=O)[C@@H](CO)NS(=O)(=O)Cc1ccccc1)C(=O)NCc1ccc(C(=N)N)cc1 [Inhibitor 13],0.25 µM
11,C[C@@H](OCc1ccccc1)[C@H](NC(=O)[C@@H](CO)NS(=O)(=O)Cc1ccccc1)C(=O)NCc1ccc(C(=N)N)cc1 [Inhibitor 14],0.33 µM
12,N=C(N)c1ccc(CNC(=O)[C@H](CO)NC(=O)[C@@H](CO)NS(=O)(=O)Cc2ccccc2)cc1 [Inhibitor 15],0.3 µM
13,N=C(N)c1ccc(CNC(=O)[C@H](COCc2ccccc2)NC(=O)[C@@H](CO)NS(=O)(=O)Cc2ccccc2)cc1 [Inhibitor 16],0.3 µM
14,N=C(N)c1ccc(CNC(=O)[C@H](Cc2ccccc2)NC(=O)[C@@H](CO)NS(=O)(=O)Cc2ccccc2)cc1 [Inhibitor 18],0.92 µM

# Biological target: thrombin (UniProt P00735)
# Test: Inhibitory constants for thrombin
# Type: biochemical
# Settings: read-out: Ki Thrombin
row,Compound,Ki
1,N=C(N)c1ccc(CNC(=O)CNC(=O)C(CO)NS(=O)(=O)Cc2ccccc2)cc1 (centres unmarked) [Inhibitor 1],13 µM
2,C[C@H](NC(=O)[C@@H](CO)NS(=O)(=O)Cc1ccccc1)C(=O)NCc1ccc(C(=N)N)cc1 [Inhibitor 2],0.11 µM
3,N=C(N)c1ccc(CNC(=O)C2CCCN2C(=O)C(CO)NS(=O)(=O)Cc2ccccc2)cc1 (centres unmarked) [Inhibitor 3],0.012 µM
4,N=C(N)c1ccc(CNC(=O)[C@H](CC(=O)O)NC(=O)[C@@H](CO)NS(=O)(=O)Cc2ccccc2)cc1 [Inhibitor 4],> 1000 µM
5,N=C(N)c1ccc(CNC(=O)[C@H](CCC(=O)O)NC(=O)[C@@H](CO)NS(=O)(=O)Cc2ccccc2)cc1 [Inhibitor 5],38 µM
6,N=C(N)c1ccc(CNC(=O)[C@H](CCC(N)=O)NC(=O)[C@@H](CO)NS(=O)(=O)Cc2ccccc2)cc1 [Inhibitor 6],0.49 µM
7,N=C(N)c1ccc(CNC(=O)[C@H](CN)NC(=O)[C@@H](CO)NS(=O)(=O)Cc2ccccc2)cc1 [Inhibitor 8],0.65 µM
8,N=C(N)c1ccc(CNC(=O)[C@H](CNC(=O)OCc2ccccc2)NC(=O)[C@@H](CO)NS(=O)(=O)Cc2ccccc2)cc1 [Inhibitor 9],6.9 µM
9,N=C(N)c1ccc(CNC(=O)[C@H](CCCCN)NC(=O)[C@@H](CO)NS(=O)(=O)Cc2ccccc2)cc1 [Inhibitor 10],4.3 µM
10,N=C(N)c1ccc(CNC(=O)[C@H](CCCCNC(=O)OCc2ccccc2)NC(=O)[C@@H](CO)NS(=O)(=O)Cc2ccccc2)cc1 [Inhibitor 11],0.18 µM
11,N=C(N)NCCC[C@H](NC(=O)[C@@H](CO)NS(=O)(=O)Cc1ccccc1)C(=O)NCc1ccc(C(=N)N)cc1 [Inhibitor 12],4.7 µM
12,C[C@@H](O)[C@H](NC(=O)[C@@H](CO)NS(=O)(=O)Cc1ccccc1)C(=O)NCc1ccc(C(=N)N)cc1 [Inhibitor 13],4 µM
13,C[C@@H](OCc1ccccc1)[C@H](NC(=O)[C@@H](CO)NS(=O)(=O)Cc1ccccc1)C(=O)NCc1ccc(C(=N)N)cc1 [Inhibitor 14],0.3 µM
14,N=C(N)c1ccc(CNC(=O)[C@H](CO)NC(=O)[C@@H](CO)NS(=O)(=O)Cc2ccccc2)cc1 [Inhibitor 15],14 µM
15,N=C(N)c1ccc(CNC(=O)[C@H](COCc2ccccc2)NC(=O)[C@@H](CO)NS(=O)(=O)Cc2ccccc2)cc1 [Inhibitor 16],0.48 µM
16,N=C(N)c1ccc(CNC(=O)C[C@H](CO)NC(=O)[C@@H](CO)NS(=O)(=O)Cc2ccccc2)cc1 [Inhibitor 17],8.5 µM
17,N=C(N)c1ccc(CNC(=O)[C@H](Cc2ccccc2)NC(=O)[C@@H](CO)NS(=O)(=O)Cc2ccccc2)cc1 [Inhibitor 18],1.6 µM

# Reference: patent US9365613B2, “Acylated 4-amidino- and -4-guanidinobenzylamines for inhibition of plasma kallikrein” (The Medicines Company (Leipzig) GmbH, priority 2003, dated 2016)
